Patent US12264134B2 (Merck Sharp & Dohme LLC, priority 2018, dated 2025)
Structures can show the parent of a compound that is named as a salt.

Key:
[1] = target: T1, IDO1 (Homo sapiens, UniProt P14902); assay: IDO1 Cellular Assay in HeLa Cells Stimulated with IFNγ; type: cell-based; settings: read-out: HeLa Cell Potency, IC50
[2] = target: T1, IDO1; assay: IDO1 Human Whole blood Assay; type: cell-based; design: Human whole blood was drawn in sodium heparin coated tubes from healthy internal donors; from tissue; host or cells: human whole blood from healthy donors, stimulated with LPS and IFNγ; settings: LPS and IFNγ stimulated, 18 h, read-out: Human Whole Blood Potency, IC50
Outline: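 Heparinized healthy-donor human whole blood was preincubated 15 min with compound, then stimulated with LPS and IFNγ (100 ng/mL final) for 18 h at 37 °C. Plasma kynurenine was quantified by LC/MS/MS against a D6-kynurenine internal standard, and IC50s came from 4-parameter sigmoidal fits.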

T1 sequence (P14902 whole entry): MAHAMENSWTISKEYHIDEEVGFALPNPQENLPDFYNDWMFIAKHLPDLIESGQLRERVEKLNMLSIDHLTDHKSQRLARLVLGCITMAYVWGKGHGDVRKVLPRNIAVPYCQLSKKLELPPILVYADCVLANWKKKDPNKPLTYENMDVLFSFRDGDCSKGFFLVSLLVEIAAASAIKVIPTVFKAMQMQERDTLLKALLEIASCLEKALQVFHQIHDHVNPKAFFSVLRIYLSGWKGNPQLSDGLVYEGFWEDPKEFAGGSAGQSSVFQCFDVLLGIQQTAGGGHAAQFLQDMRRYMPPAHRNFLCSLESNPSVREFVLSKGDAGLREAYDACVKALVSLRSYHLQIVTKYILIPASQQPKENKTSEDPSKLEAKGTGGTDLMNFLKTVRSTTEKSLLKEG

Structure (SMILES)	IC50 [1]	IC50 [2]
Cc1cccc(N2CCN(C(=O)Cn3nc(C(=O)N4CCC(n5ncnn5)CC4)c4c3CCC4)CC2)c1C [Example 129, 1-[4-(2,3-dimethylphenyl)piperazin-1-yl]-2-{3-[4-(2H-tetrazol-2-yl)piperidine-1-carbonyl]-2,6-dihydrocyclopenta[c]pyrazol-1(4H)-yl}ethan-1-one]	3.08 nM	311 nM
Cc1cccc(N2CCN(C(=O)Cn3nc(C(=O)N4CCC(N5CCNC5=O)CC4)c4c3CCC4)CC2)c1C [Example 130, 1-[1-(1-{2-[4-(2,3-dimethylphenyl)piperazin-1-yl]-2-oxoethyl}-1,4,5,6-tetrahydrocyclopenta[c]pyrazole-3-carbonyl)piperidin-4-yl]imidazolidin-2-one]	3.54 nM	175 nM
Cc1cccc(N2CCN(C(=O)Cn3nc(C(=O)N4CCC(O)(CO)CC4)c4c3CCC4)CC2)c1C [Example 141, 1-[4-(2,3-dimethylphenyl)piperazin-1-yl]-2-{3-[4-hydroxy-4-(hydroxymethyl)piperidine-1-carbonyl]-5,6-dihydrocyclopenta[c]pyrazol-1(4H)-yl}ethan-1-one]	11.3 nM	360 nM
Cc1cccc(N2CCN(C(=O)Cn3nc(C(=O)N4CCC(c5cn[nH]c5)CC4)c4c3CCC4)CC2)c1C [Example 142, 1-[4-(2,3-dimethylphenyl)piperazin-1-yl]-2-{3-[4-(1H-pyrazol-4-yl)piperidine-1-carbonyl]-5,6-dihydrocyclopenta[c]pyrazol-1(4H)-yl}ethan-1-one]	1.29 nM	48 nM
Cc1cccc(N2CCN(C(=O)Cn3nc(C(=O)N4CCC5(CCOC5=O)CC4)c4c3CCC4)CC2)c1C [Example 146, 8-(1-{2-[4-(2,3-dimethylphenyl)piperazin-1-yl]-2-oxoethyl}-1,4,5,6-tetrahydrocyclopenta[c]pyrazole-3-carbonyl)-2-oxa-8-azaspiro[4.5]decan-1-one]	2.39 nM	150 nM
Cc1cccc(N2CCN(C(=O)Cn3nc(C(=O)N4CCCC(CO)C4)c4c3CCC4)CC2)c1C (stereo not drawn) [Example 147, 1-[4-(2,3-dimethylphenyl)piperazin-1-yl]-2-{3-[3-(hydroxymethyl)piperidine-1-carbonyl]-5,6-dihydrocyclopenta[c]pyrazol-1(4H)-yl}ethan-1-one]	2.84 nM	607 nM
Cc1cccc(N2CCN(C(=O)Cn3nc(C(=O)N4CCN(CC(F)F)CC4)c4c3CCC4)CC2)c1C [Example 157, 2-{3-[4-(2,2-difluoroethyl)piperazine-1-carbonyl]-5,6-dihydrocyclopenta[c]pyrazol-1(4H)-yl}-1-[4-(2,3-dimethylphenyl)piperazin-1-yl]ethan-1-one]	3.34 nM	196 nM
Cc1cccc(N2CCN(C(=O)Cn3nc(C(=O)N4CCN(CC(F)(F)F)CC4)c4c3CCC4)CC2)c1C [Example 158, 1-[4-(2,3-dimethylphenyl)piperazin-1-yl]-2-{3-[4-(2,2,2-trifluoroethyl)piperazine-1-carbonyl]-5,6-dihydrocyclopenta[c]pyrazol-1(4H)-yl}ethan-1-one]	3.06 nM	375 nM
Cc1cccc(N2CCN(C(=O)Cn3nc(C(=O)N4CCC(CCO)CC4)c4c3CCC4)CC2)c1C [Example 160, 1-[4-(2,3-dimethylphenyl)piperazin-1-yl]-2-{3-[4-(2-hydroxyethyl)piperidine-1-carbonyl]-5,6-dihydrocyclopenta[c]pyrazol-1(4H)-yl}ethan-1-one]	1.65 nM	209 nM
Cc1cccc(N2CCN(C(=O)Cn3nc(C(=O)N4CCC(C)(CO)CC4)c4c3CCC4)CC2)c1C [Example 161, 1-[4-(2,3-dimethylphenyl)piperazin-1-yl]-2-{3-[4-(hydroxymethyl)-4-methylpiperidine-1-carbonyl]-5,6-dihydrocyclopenta[c]pyrazol-1(4H)-yl}ethan-1-one]	2.42 nM	113 nM
Cc1cccc(N2CCN(C(=O)Cn3nc(C(=O)N4CCN(CC(N)=O)CC4)c4c3CCC4)CC2)c1C [Example 165, 2-[4-(1-{2-[4-(2,3-dimethylphenyl)piperazin-1-yl]-2-oxoethyl}-1,4,5,6-tetrahydrocyclopenta[c]pyrazole-3-carbonyl)piperazin-1-yl]acetamide]	8.85 nM	79 nM
Cc1cccc(N2CCN(C(=O)Cn3nc(C(=O)N4CCN(C)[C@H](C)C4)c4c3CCC4)CC2)c1C [Example 167, 1-[4-(2,3-dimethylphenyl)piperazin-1-yl]-2-{3-[(3R)-3,4-dimethylpiperazine-1-carbonyl]-5,6-dihydrocyclopenta[c]pyrazol-1(4H)-yl}ethan-1-one]	7.88 nM	189 nM
Cc1cccc(N2CCN(C(=O)Cn3nc(C(=O)N4CCN(C5COC5)CC4)c4c3CCC4)CC2)c1C [Example 168, 1-[4-(2,3-dimethylphenyl)piperazin-1-yl]-2-{3-[4-(oxetan-3-yl)piperazine-1-carbonyl]-5,6-dihydrocyclopenta[c]pyrazol-1(4H)-yl}ethan-1-one]	5.88 nM	441 nM
COCCN1[C@H](C)CN(C(=O)c2nn(CC(=O)N3CCN(c4cccc(C)c4C)CC3)c3c2CCC3)C[C@@H]1C [Example 172, 1-[4-(2,3-dimethylphenyl)piperazin-1-yl]-2-{3-[(3R,5S)-4-(2-methoxyethyl)-3,5-dimethylpiperazine-1-carbonyl]-5,6-dihydrocyclopenta[c]pyrazol-1(4H)-yl}ethan-1-one]	6.12 nM	1240 nM
Cc1cccc(N2CCN(C(=O)Cn3nc(C(=O)N4CCN5CCOC[C@H]5C4)c4c3CCC4)CC2)c1C [Example 173, 1-[4-(2,3-dimethylphenyl)piperazin-1-yl]-2-{3-[(9aR)-hexahydropyrazino[2,1-c][1,4]oxazine-8(1H)-carbonyl]-5,6-dihydrocyclopenta[c]pyrazol-1(4H)-yl}ethan-1-one]	7.66 nM	1670 nM
Cc1cccc(N2CCN(C(=O)Cn3nc(C(=O)N4CCN5CCOC[C@@H]5C4)c4c3CCC4)CC2)c1C [Example 174, 1-[4-(2,3-dimethylphenyl)piperazin-1-yl]-2-{3-[(9aS)-hexahydropyrazino[2,1-c][1,4]oxazine-8(1H)-carbonyl]-5,6-dihydrocyclopenta[c]pyrazol-1(4H)-yl}ethan-1-one]	3.75 nM	480 nM
Cc1cccc(N2CCN(C(=O)Cn3nc(C(=O)N4CCC5(CC4)COCC5O)c4c3CCC4)CC2)c1C (stereo not drawn) [Example 181, 1-[4-(2,3-dimethylphenyl)piperazin-1-yl]-2-[3-(4-hydroxy-2-oxo-8-azaspiro[4.5]decane-8-carbonyl)-5,6-dihydrocyclopenta[c]pyrazol-1(4H)-yl]ethan-1-one]	3.3 nM	125 nM
Cc1cccc(N2CCN(C(=O)Cn3nc(C(=O)N4CCC(O)(C(F)F)CC4)c4c3CCC4)CC2)c1C [Example 192, 2-{3-[4-(difluoromethyl)-4-hydroxypiperidine-1-carbonyl]-5,6-dihydrocyclopenta[c]pyrazol-1(4H)-yl}-1-[4-(2,3-dimethylphenyl)piperazin-1-yl]ethan-1-one]	1.64 nM	196 nM
Cc1cccc(N2CCN(C(=O)Cn3nc(C(=O)N4CC[C@H](N)[C@@H](F)C4)c4c3CCC4)CC2)c1C [Example 203, [(3S,4S)-1-[1-[2-[4-(2,3-dimethylphenyl)piperazin-1-yl]-2-oxo-ethyl]-5,6-dihydro-4H-cyclopenta[c]pyrazole-3-carbonyl]-3-fluoro-4-piperidyl]ammonium; formate]	13 nM	278 nM
CC(=O)NC1CCN(C(=O)c2nn(CC(=O)N3CCN(c4cccc(C)c4C)CC3)c3c2[C@@H]2C[C@@H]2C3)CC1 [Example 229, N-{1-[(3bR,4aR)-1-{2-[4-(2,3-dimethylphenyl)piperazin-1-yl]-2-oxoethyl}-3b,4,4a,5-tetrahydro-1H-cyclopropa[3,4]cyclopenta[1,2-c]pyrazole-3-carbonyl]piperidin-4-yl}acetamide]	1.06 nM	224 nM
Cc1cccc(N2CCN(C(=O)Cn3nc(C(=O)N4CC[C@@H](C(C)(C)O)C4)c4c3C[C@H]3C[C@@H]43)CC2)c1C [Example 230, 1-[4-(2,3-dimethylphenyl)piperazin-1-yl]-2-{(3bR,4aR)-3-[(3R)-3-(2-hydroxypropan-2-yl)pyrrolidine-1-carbonyl]-3b,4,4a,5-tetrahydro-1H-cyclopropa[3,4]cyclopenta[1,2-c]pyrazol-1-yl}ethan-1-one]	1.13 nM	801 nM
Cc1cccc(N2CCN(C(=O)Cn3nc(C(=O)N4C[C@@H](C)N[C@@H](C)C4)c4c3C[C@H]3C[C@@H]43)CC2)c1C [Example 234, 1-[4-(2,3-dimethylphenyl)piperazin-1-yl]-2-{(3bR,4aR)-3-[(3R,5S)-3,5-dimethylpiperazine-1-carbonyl]-3b,4,4a,5-tetrahydro-1H-cyclopropa[3,4]cyclopenta[1,2-c]pyrazol-1-yl}ethan-1-one]	3.61 nM	273 nM
Cc1cccc(N2CCN(C(=O)Cn3nc(C(=O)N4C[C@@H](C)N(C)[C@@H](C)C4)c4c3C[C@H]3C[C@@H]43)CC2)c1C [Example 235, 1-[4-(2,3-dimethylphenyl)piperazin-1-yl]-2-{(3bR,4aR)-3-[(3R,5S)-3,4,5-trimethylpiperazine-1-carbonyl]-3b,4,4a,5-tetrahydro-1H-cyclopropa[3,4]cyclopenta[1,2-c]pyrazol-1-yl}ethan-1-one]	3.1 nM	339 nM
Cc1cccc(N2CCN(C(=O)Cn3nc(C(=O)N4CCC(O)(CN)CC4)c4c3C[C@H]3C[C@@H]43)CC2)c1C [Example 238, 2-{(3bR,4aR)-3-[4-(aminomethyl)-4-hydroxypiperidine-1-carbonyl]-3b,4,4a,5-tetrahydro-1H-cyclopropa[3,4]cyclopenta[1,2-c]pyrazol-1-yl}-1-[4-(2,3-dimethylphenyl)piperazin-1-yl]ethan-1-one]	8.43 nM	5050 nM
